Assay results taken from patent US10280170B2, “Substituted 4,5,6,7-tetrahydro-pyrazolo[1,5-a]pyrazine derivatives and 5,6,7,8-tetrahydro-4H-pyrazolo[1,5-a][1,4]diazepine derivatives as Ros1 inhibitors” (Janssen Pharmaceutica NV, priority 2014, dated 2019).
Where two headings read alike, the source gives them in different places.

Legend:
[1] = biological target: T1, Ba/F3 cells containing Ros1 wild-type protein (Homo sapiens, UniProt P08922, cells depend on it, form not given); experiment: Ba/F3-Ros1 cell proliferation assay, wild-type Ros1; format: cell-based, murine; details: without IL-3
T1 construct: The background only speaks of 'a number of different unrelated proteins' and names SLC34A2-ROS1 for HCC78 cells
T1 sequence (P08922 whole entry, stated change not applied): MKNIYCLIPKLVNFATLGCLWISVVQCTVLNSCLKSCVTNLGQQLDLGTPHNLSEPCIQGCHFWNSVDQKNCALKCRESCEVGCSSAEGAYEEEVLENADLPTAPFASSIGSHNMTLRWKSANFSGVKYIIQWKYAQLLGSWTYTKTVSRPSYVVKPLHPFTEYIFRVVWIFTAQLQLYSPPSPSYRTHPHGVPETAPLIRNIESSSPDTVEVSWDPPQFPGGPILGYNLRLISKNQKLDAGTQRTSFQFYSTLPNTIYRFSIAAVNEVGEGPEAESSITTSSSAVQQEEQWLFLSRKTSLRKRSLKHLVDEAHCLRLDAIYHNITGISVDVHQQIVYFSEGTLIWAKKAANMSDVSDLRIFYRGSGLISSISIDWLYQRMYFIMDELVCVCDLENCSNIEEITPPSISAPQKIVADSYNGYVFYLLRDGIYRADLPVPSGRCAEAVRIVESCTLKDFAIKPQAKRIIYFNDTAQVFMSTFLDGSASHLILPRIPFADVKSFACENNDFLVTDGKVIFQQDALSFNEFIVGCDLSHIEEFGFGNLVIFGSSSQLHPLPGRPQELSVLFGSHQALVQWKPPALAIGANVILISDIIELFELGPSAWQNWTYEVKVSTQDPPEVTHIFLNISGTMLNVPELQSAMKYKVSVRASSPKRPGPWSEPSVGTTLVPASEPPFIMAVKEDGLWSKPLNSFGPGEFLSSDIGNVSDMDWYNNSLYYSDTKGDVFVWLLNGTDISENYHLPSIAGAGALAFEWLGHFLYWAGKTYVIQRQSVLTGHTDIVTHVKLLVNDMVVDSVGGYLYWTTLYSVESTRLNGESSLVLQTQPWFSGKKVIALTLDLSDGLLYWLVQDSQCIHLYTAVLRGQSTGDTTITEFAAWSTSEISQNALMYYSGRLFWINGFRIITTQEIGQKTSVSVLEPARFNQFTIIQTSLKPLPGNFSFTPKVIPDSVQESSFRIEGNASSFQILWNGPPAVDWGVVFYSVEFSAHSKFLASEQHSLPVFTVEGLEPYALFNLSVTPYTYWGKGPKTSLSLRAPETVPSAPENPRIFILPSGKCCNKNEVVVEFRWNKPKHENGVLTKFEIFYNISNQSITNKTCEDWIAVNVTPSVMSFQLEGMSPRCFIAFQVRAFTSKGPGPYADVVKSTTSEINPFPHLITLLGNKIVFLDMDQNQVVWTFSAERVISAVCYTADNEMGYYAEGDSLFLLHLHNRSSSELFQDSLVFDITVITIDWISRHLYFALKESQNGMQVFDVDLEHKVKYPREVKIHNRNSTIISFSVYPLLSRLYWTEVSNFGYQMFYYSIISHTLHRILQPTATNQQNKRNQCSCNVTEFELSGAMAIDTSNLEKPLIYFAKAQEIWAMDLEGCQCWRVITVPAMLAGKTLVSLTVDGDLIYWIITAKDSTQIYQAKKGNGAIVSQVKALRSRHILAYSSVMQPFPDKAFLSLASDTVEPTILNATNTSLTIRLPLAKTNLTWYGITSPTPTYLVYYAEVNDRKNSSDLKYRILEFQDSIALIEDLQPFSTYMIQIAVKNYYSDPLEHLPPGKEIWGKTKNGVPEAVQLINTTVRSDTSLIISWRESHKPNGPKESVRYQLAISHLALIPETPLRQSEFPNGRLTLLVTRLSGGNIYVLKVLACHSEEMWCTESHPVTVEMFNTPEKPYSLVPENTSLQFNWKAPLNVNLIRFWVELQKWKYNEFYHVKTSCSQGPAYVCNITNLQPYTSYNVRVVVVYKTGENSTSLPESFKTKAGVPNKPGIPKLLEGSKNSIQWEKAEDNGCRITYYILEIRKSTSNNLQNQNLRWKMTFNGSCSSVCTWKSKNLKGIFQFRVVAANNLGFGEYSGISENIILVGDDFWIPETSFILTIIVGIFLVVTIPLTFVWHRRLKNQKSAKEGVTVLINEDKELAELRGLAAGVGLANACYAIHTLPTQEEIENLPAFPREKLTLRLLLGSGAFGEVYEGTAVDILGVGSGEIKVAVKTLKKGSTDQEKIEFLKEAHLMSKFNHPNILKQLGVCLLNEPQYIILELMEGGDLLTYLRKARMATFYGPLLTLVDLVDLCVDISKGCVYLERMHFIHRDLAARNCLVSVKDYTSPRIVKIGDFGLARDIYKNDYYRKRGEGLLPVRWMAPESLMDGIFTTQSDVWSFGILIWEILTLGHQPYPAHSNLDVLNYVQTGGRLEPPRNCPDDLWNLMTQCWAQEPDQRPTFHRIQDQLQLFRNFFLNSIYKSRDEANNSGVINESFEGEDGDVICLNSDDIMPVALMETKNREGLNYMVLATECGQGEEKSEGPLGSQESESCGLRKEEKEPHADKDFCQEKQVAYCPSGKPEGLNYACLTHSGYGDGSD
How it was run: (§1)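 Ba/F3 cells expressing wild-type, L2026M or G2032R Ros1 (20000 per well) were incubated with DMSO-solubilized compounds in phenol red-free RPMI-1640 with 10% FBS and 2 mM L-glutamine at 37 °C, 5% CO2 for 24 hours. Viability was then read by Alamar Blue fluorescence (ex 540/em 590 nm) after 4 h.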

[2] = tested on: HCC78 non-small cell lung cancer cells; experiment: HCC78 cell proliferation assay; format: cell-based; details: for EC50: Homo sapiens, HCC78, 96 h, read-out: HCC-78 PROL pEC50 (converted)
How it was run: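 HCC78 NSCLC cells (~1000/well) in RPMI-1640 with 10% FBS were treated 24 h after seeding and exposed to compound for 4 days at 37 °C. Viability was read by MTT, with absorbance at 538 nm after DMSO/glycine solubilization.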

[3] = biological target: Ba/F3 cells containing Ros1 with a mutation at the gatekeeper residue (L2026M) (Homo sapiens, UniProt P08922, L2026M, cells depend on it, form not given); experiment: Ba/F3-Ros1 cell proliferation assay, L2026M gatekeeper mutant; format: cell-based, murine; details: without IL-3
Sequence of Ba/F3 cells containing Ros1 with a mutation at the gatekeeper residue (L2026M) (P08922 whole entry L2026M, form open): as the sequence (P08922 whole entry, stated change not applied) above, with L2026M counted along it
How it was run: as §1

[4] = tested on: Ba/F3 cells containing Ros1 wild-type protein + IL-3; experiment: Ba/F3-Ros1 cell proliferation counter-screen, wild-type protein in the presence of 10 ng/ml murine IL-3; format: cell-based; details: Mus musculus, BaF3, 24 h, read-out: BaF3-ROS1 + IL3 pIC50 (converted)
How it was run: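 Wild-type Ros1 Ba/F3 cells, cultured with 10 ng/ml murine IL-3, are exposed to compound for 24 h at 37 °C; Alamar Blue fluorescence after 4 h reports cell viability.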

Ros1 enzyme = biological target: T2, Ros1 enzyme (Homo sapiens, UniProt P08922); experiment: Ros1 enzymatic assay; format: biochemical; details: Ros1 enzymatic assay; read-out: ROS1 pIC50 (converted)
T2 construct: 0.5 μg/ml Ros1 enzyme
T2 sequence (P08922 28-2347): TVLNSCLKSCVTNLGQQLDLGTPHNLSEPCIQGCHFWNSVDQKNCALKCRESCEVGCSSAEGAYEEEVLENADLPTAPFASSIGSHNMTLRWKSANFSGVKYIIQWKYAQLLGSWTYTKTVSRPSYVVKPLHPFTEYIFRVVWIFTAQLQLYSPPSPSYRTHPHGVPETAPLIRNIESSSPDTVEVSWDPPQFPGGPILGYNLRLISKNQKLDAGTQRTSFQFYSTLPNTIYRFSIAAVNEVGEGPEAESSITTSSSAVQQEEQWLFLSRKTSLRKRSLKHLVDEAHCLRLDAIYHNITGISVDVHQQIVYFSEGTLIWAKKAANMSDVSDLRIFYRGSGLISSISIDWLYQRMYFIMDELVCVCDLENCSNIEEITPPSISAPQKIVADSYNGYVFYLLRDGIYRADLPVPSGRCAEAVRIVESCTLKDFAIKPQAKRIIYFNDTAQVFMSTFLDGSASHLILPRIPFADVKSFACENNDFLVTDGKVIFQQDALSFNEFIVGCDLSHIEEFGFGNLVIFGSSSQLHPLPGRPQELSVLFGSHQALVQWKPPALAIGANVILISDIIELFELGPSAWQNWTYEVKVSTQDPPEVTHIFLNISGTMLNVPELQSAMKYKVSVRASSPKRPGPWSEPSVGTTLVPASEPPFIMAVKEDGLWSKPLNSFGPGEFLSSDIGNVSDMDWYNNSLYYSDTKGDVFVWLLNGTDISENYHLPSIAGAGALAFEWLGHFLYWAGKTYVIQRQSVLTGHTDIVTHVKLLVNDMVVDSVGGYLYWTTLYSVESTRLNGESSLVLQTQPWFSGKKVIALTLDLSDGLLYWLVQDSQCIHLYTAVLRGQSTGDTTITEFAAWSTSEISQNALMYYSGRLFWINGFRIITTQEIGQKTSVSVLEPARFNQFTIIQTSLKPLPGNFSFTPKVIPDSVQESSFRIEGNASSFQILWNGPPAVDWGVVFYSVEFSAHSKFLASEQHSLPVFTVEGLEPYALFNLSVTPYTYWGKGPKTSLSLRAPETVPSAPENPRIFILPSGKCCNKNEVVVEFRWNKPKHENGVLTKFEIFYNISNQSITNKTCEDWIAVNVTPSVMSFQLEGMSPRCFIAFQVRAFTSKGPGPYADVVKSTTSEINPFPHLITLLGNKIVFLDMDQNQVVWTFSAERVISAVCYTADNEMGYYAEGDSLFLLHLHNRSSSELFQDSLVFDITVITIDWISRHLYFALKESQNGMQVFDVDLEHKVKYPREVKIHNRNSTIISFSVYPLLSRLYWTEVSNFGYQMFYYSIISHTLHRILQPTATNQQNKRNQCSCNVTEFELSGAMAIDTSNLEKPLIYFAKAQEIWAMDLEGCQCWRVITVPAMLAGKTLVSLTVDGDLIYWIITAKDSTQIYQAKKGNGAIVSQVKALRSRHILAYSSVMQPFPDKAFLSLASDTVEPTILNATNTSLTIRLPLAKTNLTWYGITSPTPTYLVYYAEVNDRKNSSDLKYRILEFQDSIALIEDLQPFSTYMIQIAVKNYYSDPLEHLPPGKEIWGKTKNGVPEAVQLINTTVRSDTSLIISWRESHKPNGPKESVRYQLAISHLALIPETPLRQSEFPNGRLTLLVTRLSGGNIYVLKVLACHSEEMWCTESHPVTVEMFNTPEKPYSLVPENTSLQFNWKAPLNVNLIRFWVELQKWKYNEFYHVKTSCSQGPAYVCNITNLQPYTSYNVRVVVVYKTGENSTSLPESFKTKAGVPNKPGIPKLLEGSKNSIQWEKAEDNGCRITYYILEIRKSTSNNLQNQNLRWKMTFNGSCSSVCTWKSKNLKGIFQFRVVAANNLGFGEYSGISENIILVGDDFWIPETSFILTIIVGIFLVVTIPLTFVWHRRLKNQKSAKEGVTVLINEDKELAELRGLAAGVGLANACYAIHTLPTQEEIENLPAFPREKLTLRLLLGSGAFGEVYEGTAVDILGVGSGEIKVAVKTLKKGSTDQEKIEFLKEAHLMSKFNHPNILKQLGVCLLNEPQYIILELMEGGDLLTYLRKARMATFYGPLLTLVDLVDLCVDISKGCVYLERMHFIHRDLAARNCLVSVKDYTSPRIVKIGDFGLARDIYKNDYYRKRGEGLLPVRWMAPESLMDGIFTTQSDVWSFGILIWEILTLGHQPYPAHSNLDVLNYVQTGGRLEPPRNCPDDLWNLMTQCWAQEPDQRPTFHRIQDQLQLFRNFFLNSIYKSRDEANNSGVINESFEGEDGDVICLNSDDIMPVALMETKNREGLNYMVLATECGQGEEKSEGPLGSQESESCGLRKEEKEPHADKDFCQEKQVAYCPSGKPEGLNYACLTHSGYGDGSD
How it was run: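 Signal came from streptavidin-coupled imaging beads binding radiolabelled IRS-Tide after a 120 min room-temperature kinase reaction, quenched with 5 mM EDTA and 50 μM cold ATP. Enzyme mix held Ros1 at 0.5 μg/ml; substrate mix held 6 μg/ml IRS-Tide and 20 μM ATP.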

[5] = counter-screen, wild-type, 10 ng/ml murine IL-3

| SMILES | BaF3-ROS1-IL3 pIC50 [1] | EC50 ([2]; HCC78 cells, 4 days, MTT) | Ba/F3 Ros1 L2026M (-IL-3) pIC50 [3] | CC50 [4, 5] | IC50 (Ros1 enzyme) | melting point | EC50 [2] | CC50 [4] | HCC-78 PROL pEC50 ([2]; HCC78 cells, 4 days, MTT) |
| --- | --- | --- | --- | --- | --- | --- | --- | --- | --- |
| CC(C)c1ccc(COc2ccc(-c3c(-c4ccncc4)nn4c3C(=O)NCC4)cc2)cc1C#N [Compound 85] | 7.4 | 0.316 µM | 7.1 | > 10 µM | 0.0398 µM | 240 °C |  |  |  |
| CC(C)c1ccc(COc2ccc(-c3c(-c4ccncc4)nn4c3C(=O)N(CCO)CC4)cc2)cc1C#N [Compound 87] | 7.3 |  | 7.2 |  | 0.0398 µM | 160 °C | 0.2 µM | > 10 µM |  |
| CC(C)c1ccc(COc2ccc(-c3c(-c4ccncc4)nn4c3C(=O)NCC4)cc2)cc1CCN [Compound 88] | 7.1 | 0.0794 µM | 6.8 | > 10 µM | 0.0126 µM | 181 °C |  |  |  |
| COCCOc1cc(COc2ccc(-c3c(-c4ccncc4)nn4c3C(=O)NCC4)cc2)ccc1C(C)C [Compound 90] | 7.2 |  | 7.4 |  | 0.0794 µM | 209 °C | 0.158 µM | > 10 µM |  |
| CC(C)c1ccc(COc2ccc(-c3c(-c4ccncc4)nn4c3C(=O)N(CCO)CC4)cc2)c(F)c1 [Compound 92] | 7.2 |  | 6.7 |  | 0.0501 µM | 132 °C | 0.2 µM | > 10 µM |  |
| CC(C)c1ccc(COc2ccc(-c3c(-c4ccncc4)nn4c3C(=O)N(CCO)CC4)cc2)cc1F [Compound 93] | 7.2 |  | 7.0 |  | 0.0794 µM | 183 °C | 0.398 µM | > 10 µM |  |
| CC(C)c1cc(F)c(COc2ccc(-c3c(-c4ccncc4)nn4c3C(=O)N(CCO)CC4)cc2)c(F)c1 [Compound 94] | 7.0 |  | 6.6 |  | 0.1 µM | 194 °C | 0.398 µM | > 10 µM |  |
| CC(C)c1cc(F)c(COc2ccc(-c3c(-c4ccncc4)nn4c3C(=O)N(CC(O)CO)CC4)cc2)cc1F (stereo not drawn) [Compound 98] | 6.8 |  | 6.6 | > 10 µM | 0.251 µM | 184 °C |  |  | 6.5 |
| Cc1ccc(COc2ccc(-c3c(-c4ccncc4)nn4c3C(=O)NCC4)cc2)cc1 [Compound 105] | 7.0 |  | 6.6 |  | 0.126 µM | 259 °C | 0.158 µM | > 10 µM |  |
| CCC(C)c1ccc(COc2ccc(-c3c(-c4ccncc4)nn4c3C(=O)N(CCO)CC4)cc2)cc1 (stereo not drawn) [Compound 107] | 7.7 |  | 7.4 |  | 0.02 µM | 163 °C | 0.0794 µM | > 10 µM |  |
| CC(C)Cc1ccc(COc2ccc(-c3c(-c4ccncc4)nn4c3C(=O)N(CCO)CC4)cc2)cc1 [Compound 109] | 7.1 |  | 7.2 |  | 0.1 µM | 155 °C | 0.398 µM | > 10 µM |  |
| CC(C)(O)c1ccc(COc2ccc(-c3c(-c4ccncc4)nn4c3C(=O)N(CCO)CC4)cc2)cc1 [Compound 115] | 6.3 |  | <5 |  | 1.26 µM | 193 °C | 1.58 µM | > 10 µM |  |
| O=C1c2c(-c3ccc(OCc4ccc(OC(F)(F)F)cc4)cc3)c(-c3ccncc3)nn2CCN1CCO [Compound 117] | 7.0 |  | 6.9 |  | 0.126 µM | 134 °C | 0.251 µM | > 10 µM |  |
| CC(C)(C#N)c1ccc(COc2ccc(-c3c(-c4ccncc4)nn4c3C(=O)N(CCO)CC4)cc2)cc1 [Compound 122] | 6.9 |  | 7.1 |  | 0.126 µM | 199 °C | 0.0631 µM | > 10 µM |  |
| N#CC1(c2ccc(COc3ccc(-c4c(-c5ccncc5)nn5c4C(=O)NCC5)cc3)cc2)CC1 [Compound 123] | 7.4 |  | 7.1 |  | 0.0398 µM | 260 °C | 0.398 µM | > 10 µM |  |
| COCC(C)(C)c1ccc(COc2ccc(-c3c(-c4ccncc4)nn4c3C(=O)NCC4)cc2)cc1 [Compound 126] | 6.9 |  | 6.6 |  | 0.2 µM | 212 °C | 1.26 µM | > 10 µM |  |
| O=C1c2c(-c3ccc(OCc4ccc(C5CC5)cc4)cc3)c(-c3ccncc3)nn2CCN1CCO [Compound 129] | 7.4 |  | 7.0 |  | 0.0631 µM | 194 °C | 0.1 µM | > 10 µM |  |
| CC(O)CN1CCn2nc(-c3ccncc3)c(-c3ccc(OCc4ccc(C5CC5)cc4)cc3)c2C1=O (stereo not drawn) [Compound 134] | 7.3 | 0.2 µM | 7.0 | > 10 µM | 0.0794 µM | 196 °C |  |  |  |
| O=C1c2c(-c3ccc(OCc4ccc(C5CC5)cc4F)cc3)c(-c3ccncc3)nn2CCN1CCO [Compound 136] | 7.1 |  | 6.6 |  | 0.0631 µM | 183 °C | 0.316 µM | > 10 µM |  |
| O=C1c2c(-c3ccc(OCc4ccc(C5CC5)c(F)c4)cc3)c(-c3ccncc3)nn2CCN1CCO [Compound 137] | 6.8 |  | 6.4 |  | 0.126 µM | 185 °C | 0.398 µM | > 10 µM |  |
| O=C1c2c(-c3ccc(OCc4ccc(C5CC5)nc4)cc3)c(-c3ccncc3)nn2CCN1CCO [Compound 139] | 6.8 |  | 6.0 |  | 0.126 µM | 97 °C | 0.1 µM | > 10 µM |  |
| CC(C)c1ccc(C(C)Oc2ccc(-c3c(-c4ccncc4)nn4c3C(=O)N(CCO)CC4)cc2)cc1 (stereo not drawn) [Compound 144] | 6.3 |  | 5.7 | > 10 µM | 1.26 µM | 148 °C |  |  | 5.0 |
| CC(C)c1ccc(C(CN)Oc2ccc(-c3c(-c4ccncc4)nn4c3C(=O)NCC4)cc2)cc1 (stereo not drawn) [Compound 147] | 5.4 |  | 6.7 |  | 3.98 µM | 178 °C | 3.98 µM | 3.98 µM |  |
| CC(C)c1ccc(CC(=O)c2ccc(-c3c(-c4ccncc4)nn4c3C(=O)NCC4)cc2)cc1 [Compound 148] | 5.5 |  | 5.9 |  | 6.31 µM | 259 °C | 1.58 µM | > 10 µM |  |
| CC(C)c1ccc(COc2ccc(-c3c(-c4ccncc4F)nn4c3C(=O)NCC4)c(F)c2)cc1 [Compound 152] | 8.0 |  | 8.1 |  | 0.01 µM | 262 °C | 0.0631 µM | > 10 µM |  |
| CC(C)c1ccc(COc2ccc(-c3c(-c4ccncc4C#N)nn4c3C(=O)NCC4)cc2)cc1 [Compound 153] | 7.5 |  | 6.8 |  | 0.0398 µM | 225 °C | 0.316 µM | > 10 µM |  |
| CC(C)c1ccc(COc2ccc(-c3c(-c4ccncc4Cl)nn4c3C(=O)NCC4)cc2)cc1 [Compound 154] | 6.9 |  | 7.1 |  | 0.1 µM | 207 °C | 0.316 µM | > 10 µM |  |
| CC(C)c1ccc(COc2ccc(-c3c(-c4ccnc5[nH]ccc45)nn4c3C(=O)NCC4)cc2)cc1 [Compound 155] | 7.8 |  | 7.5 |  | 0.0316 µM | 266 °C | 0.0794 µM | > 10 µM |  |
